As usually defined, the NOAEL is the highest dose or exposure tested at which no adverse effect was seen. Broadly, the LOAEL is the lowest dose or exposure tested at which an adverse effect was seen.

From EPA's ToxValDB 9.5 (doi:10.2903/j.efsa.2015.4060) come the findings set out here.

One series deals with Daphnia magna. Particulars: chronic/long-term; duration: 21 days; reproduction.
Another series has as its system Oncorhynchus mykiss. Conditions: chronic/long-term; duration: 88 days; other.
In another series the test system is Canidae. Conditions: chronic; duration: 53 weeks; oral; Dog Other; organ weight.
A further series relates to Folsomia candida. Conditions: chronic/long-term; duration: 28 days.
A further series has as its system Apis mellifera. Conditions: acute, mortality.
The next series concerns Hypoaspis aculeifer. Particulars: chronic/long-term; duration: 14 days.
For a further series, the system named is Lepomis macrochirus. Particulars: acute; duration: 96 hours; mortality.

SMILES strings stand for the structures. Where only a bound is given, the exact number is not on record here.

Consider `Cc1ccc(C(C)NC(=O)[C@@H](NC(=O)OC(C)C)C(C)C)cc1` (stereo not given in full) [Iprovalicarb], for which the NOEC in the series with Daphnia magna is 1.89 mg/L; with Oncorhynchus mykiss it was 5 mg/L; with Tagia sp. (chronic/long-term, duration: 8 weeks) it was at least 64 mg/kg; in the series with Folsomia candida, at least 1000 mg/kg; in the series on Hypoaspis aculeifer, at least 1000 mg/kg. Besides, the LD50 in the series with Colinus virginianus (acute, oral) is over 2000 mg/kg-day; in the series on Apis mellifera (dermal), over 200 µg/piece; in the series with Apis mellifera (oral, unspecified), over 199 µg/piece; in the series with Rattus norvegicus (acute, oral, mortality), over 5000 mg/kg-day. Besides, the LC50 in the series on Colinus virginianus (acute, oral, diet) is over 1350 mg/kg-day; in the series on Tagia sp. (acute, duration: 14 days, mortality), over 500 mg/kg; with Lepomis macrochirus it was over 20.7 µg/mL. The NOAEL was 161 mg/kg-day in the series on Colinus virginianus (reproduction developmental) and 146 mg/kg-day in the series with Rattus norvegicus (chronic). This compound showed an LOAEL in the series on Canidae of 3 mg/kg-day.
